Measured values as given in patent US9676721B2, “Compounds and compositions for the inhibition of NAMPT” (FORMA TM, LLC, priority 2010, dated 2017).

What was measured:
NAMPT = NAMPT (Homo sapiens (Human), UniProt P43490); assay: Biochemical Inhibition Assay (NAMPT enzymatic reaction, NMN by mass spectrometry); settings: recombinant His-tagged NAMPT 33 nM, 1 μM NAM, 30 minutes; read-out: Biochem IC50
Method: Biochemical Inhibition Assay NAMPT Protein Purification Recombinant His-tagged NAMPT was produced in E. coli cells, purified over a Ni column, and further purified over a size-exclusion column by XTAL Biostructures. The NAMPT Enzymatic Reaction The NAMPT enzymatic reactions were carried out in Buffer A (50 mM Hepes pH 7.5, 50 mM NaCl, 5 mM MgCl2, and 1 mM THP) in 96-well V-bottom plates. The compound titrations were performed in a separate dilution plate by serially diluting the compounds in DMSO to make a 100× stock. […] Background and signal strength was determined by addition (or non-addition) of a serial dilution of NMN to a pre-quenched enzyme and cofactor mix. Quantification of NMN A mass spectrometry-based assay was used to measure the NAMPT reaction product (NMN) and the internal control (L-Cystathionine). NMN and L-Cystathionine were detected using the services of Biocius Lifesciences with the RapidFire system. In short, the NMN and L-Cystathionine are bound to a graphitic carbon cartridge in 0.1% formic acid, eluted in 30% acetonitrile buffer, and injected into a Sciex 4000 mass spectrometer. The components of the sample were ionized with electrospray ionization and the positive ions were detected. […] The fragments are quantified and the analyzed by the following method. % Inhibitions are Determined Using this Method. First the NMN signal is normalized to the L-Cystathionine signal by dividing the NMN signal by the L-Cystathionine signal for each well. The signal from the background wells are averaged and subtracted from the test plates. […] IC50s are Determined Using Excel and this Formula.

A2780 cells = assay: In-Vitro Cell Proliferation Assay (SRB); assay type: cell-based
Method: In-Vitro Cell Proliferation Assay […] After overnight incubation at 37° C. and 5% CO2, the compound titrations were performed in a separate dilution plate by serially diluting the compounds in DMSO to make a 1000× stock. The compounds were then further diluted to 10× final concentration in culture media, whereupon 20 μL of each dilution was added to the plated cells with controls (e.g. DMSO and blank) to make a final volume of 200 μL. The final DMSO concentration in each well was 0.1%. The plates were then incubated for 72 hours at 37° C. in a 5% CO2 incubator. The number of viable cells was then assessed using sulforhodamine B (SRB) assay. Cells were fixed at 4° C. for 1 hour with the addition of 50 μL 30% trichloroacetic acid (TCA) to make a final concentration of 6% TCA. The plates were washed four times with H2O and allowed to dry for at least 1 hour, whereupon 100 μL of a […] SRB in 1% acetic acid solution was added to each well and incubated at room temperature for at least 30 minutes. The plates were then washed three times with 1% acetic acid, dried, and treated with 100 μL of 10 mM Tris-Base solution. The plates were then read in a microplate reader at an absorbance of 570 nm. Background was generated on a separate plate with media only. Method for Determining % Inhibition First, the signals from the background plate are averaged, then the background was subtracted from the test plates. […] Formula for Determining IC50 Values: […] Specificity of Cytotoxicity. Inhibition of NAMPT could be reversed by the addition of NAM or NMN. The specificity of the compounds were determined via cell viability assay in the presence of the compound and either NAM or NMN. Percent inhibitions were determined using the method given above.

NAMPT, sequence (P43490 whole entry): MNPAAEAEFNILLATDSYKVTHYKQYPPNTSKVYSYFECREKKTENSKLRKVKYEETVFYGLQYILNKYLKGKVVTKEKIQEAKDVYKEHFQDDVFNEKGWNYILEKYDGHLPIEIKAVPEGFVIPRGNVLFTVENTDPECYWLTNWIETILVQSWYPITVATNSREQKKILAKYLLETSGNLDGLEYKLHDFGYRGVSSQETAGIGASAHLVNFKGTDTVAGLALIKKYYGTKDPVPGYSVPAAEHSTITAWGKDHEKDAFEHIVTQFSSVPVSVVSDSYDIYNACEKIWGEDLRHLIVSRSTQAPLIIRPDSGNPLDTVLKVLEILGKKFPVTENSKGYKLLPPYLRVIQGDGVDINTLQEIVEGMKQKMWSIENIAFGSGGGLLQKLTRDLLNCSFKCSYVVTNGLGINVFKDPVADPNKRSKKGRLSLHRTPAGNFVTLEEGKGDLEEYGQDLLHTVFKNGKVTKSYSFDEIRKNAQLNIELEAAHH

IC50 (NAMPT) [nM] | IC50 (A2780 cells; Homo sapiens, A2780, 72 h) [nM] | Compound | IC50 (A2780 cells; 72 hours) [nM]
5.7 | 6 | COc1cc(C(F)(F)F)ccc1S(=O)(=O)c1ccc(CNC(=NC#N)Nc2ccncc2)cc1 [2-cyano-1-[(4-{[2-methoxy-4-(trifluoromethyl)benzene]sulfonyl}phenyl)methyl]-3-(pyridin-4-yl)guanidine] | –
5.3 | 3.5 | COc1ccc(C(C)C)cc1S(=O)(=O)c1ccc(CNC(=NC#N)Nc2ccncc2)cc1 [2-cyano-1-[(4-{[2-methoxy-5-(propan-2-yl)benzene]sulfonyl}phenyl)methyl]-3-(pyridin-4-yl)guanidine] | –
3.5 | 2.9 | N#CN=C(NCc1ccc(S(=O)(=O)c2cccc(-n3cccn3)c2)cc1)Nc1ccncc1 [2-cyano-1-[(4-{[3-(1H-pyrazol-1-yl)benzene]sulfonyl}phenyl)methyl]-3-(pyridin-4-yl)guanidine] | –
1.3 | 6.1 | CN(C)S(=O)(=O)c1cccc(S(=O)(=O)c2ccc(CNC(=NC#N)Nc3ccncc3)cc2)c1 [2-cyano-1-[(4-{[3-(dimethylsulfamoyl)benzene]sulfonyl}phenyl)methyl]-3-(pyridin-4-yl)guanidine] | –
7.2 | 5.9 | COCc1cccc(S(=O)(=O)c2ccc(CNC(=NC#N)Nc3ccncc3)cc2)c1 [2-cyano-1-[(4-{[3-(methoxymethyl)benzene]sulfonyl}phenyl)methyl]-3-(pyridin-4-yl)guanidine] | –
2.9 | 1.1 | CC(C)c1cccc(S(=O)(=O)c2ccc(CNC(=NC#N)Nc3ccncc3)cc2)c1 [2-cyano-1-[(4-{[3-(propan-2-yl)benzene]sulfonyl}phenyl)methyl]-3-(pyridin-4-yl)guanidine] | –
3.2 | 5.7 | CC(C)Oc1cccc(S(=O)(=O)c2ccc(CNC(=NC#N)Nc3ccncc3)cc2)c1 [2-cyano-1-[(4-{[3-(propan-2-yloxy)benzene]sulfonyl}phenyl)methyl]-3-(pyridin-4-yl)guanidine] | –
2.1 | 23.3 | CCCS(=O)(=O)Nc1cccc(S(=O)(=O)c2ccc(CNC(=NC#N)Nc3ccncc3)cc2)c1 [2-cyano-1-[(4-{[3-(propane-1-sulfonamido)benzene]sulfonyl}phenyl)methyl]-3-(pyridin-4-yl)guanidine] | –
5.1 | 5.9 | N#CN=C(NCc1ccc(S(=O)(=O)c2ccc(OCC(F)(F)F)c(F)c2)cc1)Nc1ccncc1 [2-cyano-1-[(4-{[3-fluoro-4-(2,2,2-trifluoroethoxy)benzene]sulfonyl}phenyl)methyl]-3-(pyridin-4-yl)guanidine] | –
5.3 | 1.9 | N#CN=C(NCc1ccc(S(=O)(=O)c2cc(F)cc(OCC(F)(F)F)c2)cc1)Nc1ccncc1 [2-cyano-1-[(4-{[3-fluoro-5-(2,2,2-trifluoroethoxy)benzene]sulfonyl}phenyl)methyl]-3-(pyridin-4-yl)guanidine] | –
6 | 1.5 | N#CN=C(NCc1ccc(S(=O)(=O)c2cc(F)cc(C(F)(F)F)c2)cc1)Nc1ccncc1 [2-cyano-1-[(4-{[3-fluoro-5-(trifluoromethyl)benzene]sulfonyl}phenyl)methyl]-3-(pyridin-4-yl)guanidine] | –
3.3 | 3.4 | N#CN=C(NCc1ccc(S(=O)(=O)c2ccc(-n3cccn3)cc2)cc1)Nc1ccncc1 [2-cyano-1-[(4-{[4-(1H-pyrazol-1-yl)benzene]sulfonyl}phenyl)methyl]-3-(pyridin-4-yl)guanidine] | –
1.5 | 2.8 | N#C/N=C(\NCc1ccc(S(=O)(=O)c2ccc(N3CCOCC3)cc2)cc1)Nc1ccncc1 [2-cyano-1-[(4-{[4-(morpholin-4-yl)benzene]sulfonyl}phenyl)methyl]-3-(pyridin-4-yl)guanidine] | –
3.8 | 2.8 | CC(C)c1ccc(S(=O)(=O)c2ccc(CNC(=NC#N)Nc3ccncc3)cc2)cc1 [2-cyano-1-[(4-{[4-(propan-2-yl)benzene]sulfonyl}phenyl)methyl]-3-(pyridin-4-yl)guanidine] | –
2.6 | 1.5 | CC(C)Oc1ccc(S(=O)(=O)c2ccc(CNC(=NC#N)Nc3ccncc3)cc2)cc1 [2-cyano-1-[(4-{[4-(propan-2-yloxy)benzene]sulfonyl}phenyl)methyl]-3-(pyridin-4-yl)guanidine] | –
1 | 1.6 | Cn1ncc2ccc(S(=O)(=O)c3ccc(CN/C(=N\C#N)Nc4ccncc4)cc3)cc21 [2-cyano-1-{[4-(1-methyl-1H-indazole-6-sulfonyl)phenyl]methyl}-3-(pyridin-4-yl)guanidine] | –
2.1 | 1.2 | Cn1c(S(=O)(=O)c2ccc(CNC(=NC#N)Nc3ccncc3)cc2)cc2ccccc21 [2-cyano-1-{[4-(1-methyl-1H-indole-2-sulfonyl)phenyl]methyl}-3-(pyridin-4-yl)guanidine] | –
4.3 | 49.3 | Cn1cc(S(=O)(=O)c2ccc(CNC(=NC#N)Nc3ccncc3)cc2)cn1 [2-cyano-1-{[4-(1-methyl-1H-pyrazole-4-sulfonyl)phenyl]methyl}-3-(pyridin-4-yl)guanidine] | –
4.1 | 6.4 | CCCn1cc(S(=O)(=O)c2ccc(CNC(=NC#N)Nc3ccncc3)cc2)cn1 [2-cyano-1-{[4-(1-propyl-1H-pyrazole-4-sulfonyl)phenyl]methyl}-3-(pyridin-4-yl)guanidine] | –
6.8 | 3.4 | COc1ccc(S(=O)(=O)c2ccc(CNC(=NC#N)Nc3ccncc3)cc2)c(OC)n1 [2-cyano-1-{[4-(2,6-dimethoxypyridine-3-sulfonyl)phenyl]methyl}-3-(pyridin-4-yl)guanidine] | –
4.8 | 7.5 | Cc1ncccc1S(=O)(=O)c1ccc(CNC(=NC#N)Nc2ccncc2)cc1 [2-cyano-1-{[4-(2-methylpyridine-3-sulfonyl)phenyl]methyl}-3-(pyridin-4-yl)guanidine] | –
2.3 | 8.5 | Cc1ccncc1S(=O)(=O)c1ccc(CNC(=NC#N)Nc2ccncc2)cc1 [2-cyano-1-{[4-(4-methylpyridine-3-sulfonyl)phenyl]methyl}-3-(pyridin-4-yl)guanidine] | –
5.2 | 11.9 | N#CN=C(NCc1ccc(S(=O)(=O)c2cncc(F)c2)cc1)Nc1ccncc1 [2-cyano-1-{[4-(5-fluoropyridine-3-sulfonyl)phenyl]methyl}-3-(pyridin-4-yl)guanidine] | –
4.3 | 9.1 | COc1cncc(S(=O)(=O)c2ccc(CNC(=NC#N)Nc3ccncc3)cc2)c1 [2-cyano-1-{[4-(5-methoxypyridine-3-sulfonyl)phenyl]methyl}-3-(pyridin-4-yl)guanidine] | –
1.4 | 6.3 | Cc1ccc(S(=O)(=O)c2ccc(CNC(=NC#N)Nc3ccncc3)cc2)cn1 [2-cyano-1-{[4-(6-methylpyridine-3-sulfonyl)phenyl]methyl}-3-(pyridin-4-yl)guanidine] | –
3.8 | 3 | N#CN=C(NCc1ccc(S(=O)(=O)c2cccc3ccccc23)cc1)Nc1ccncc1 [2-cyano-1-{[4-(naphthalene-1-sulfonyl)phenyl]methyl}-3-(pyridin-4-yl)guanidine] | –

Compound | IC50 (NAMPT) [nM] | IC50 (A2780 cells; Homo sapiens, A2780, 72 h) [nM] | IC50 (A2780 cells; 72 hours) [nM]
CCS(=O)(=O)c1cccc(S(=O)(=O)c2ccc(CNC(=NC#N)Nc3ccncc3)cc2)c1 [2-cyano-1-[(4-{[3-(ethanesulfonyl)benzene]sulfonyl}phenyl)methyl]-3-(pyridin-4-yl)guanidine] | 1.8 | – | 13.3
